Source: article PMC4900628, “Critical Evaluation of P2X7 Receptor Antagonists in Selected Seizure Models” (PLoS ONE, 2016)

Key:
[1] = molecular target: T1, rat P2X7R (Rattus norvegicus, UniProt Q64663); experiment: fluorometric Ca2+ assay (ATP-induced [Ca2+]i response) in HEKrP2X7 cells; format: cell-based; conditions: for IC50: HEKrP2X7 cells, fluo-4, 1 mM ATP, read-out: Potency IC50 ± SEM, Rat P2X7R
T1 construct: expressed in transfected cells; host or cells: HEK293 Flp-In T-REx (HEKrP2X7), tetracycline-induced
T1 sequence (Q64663 1-595): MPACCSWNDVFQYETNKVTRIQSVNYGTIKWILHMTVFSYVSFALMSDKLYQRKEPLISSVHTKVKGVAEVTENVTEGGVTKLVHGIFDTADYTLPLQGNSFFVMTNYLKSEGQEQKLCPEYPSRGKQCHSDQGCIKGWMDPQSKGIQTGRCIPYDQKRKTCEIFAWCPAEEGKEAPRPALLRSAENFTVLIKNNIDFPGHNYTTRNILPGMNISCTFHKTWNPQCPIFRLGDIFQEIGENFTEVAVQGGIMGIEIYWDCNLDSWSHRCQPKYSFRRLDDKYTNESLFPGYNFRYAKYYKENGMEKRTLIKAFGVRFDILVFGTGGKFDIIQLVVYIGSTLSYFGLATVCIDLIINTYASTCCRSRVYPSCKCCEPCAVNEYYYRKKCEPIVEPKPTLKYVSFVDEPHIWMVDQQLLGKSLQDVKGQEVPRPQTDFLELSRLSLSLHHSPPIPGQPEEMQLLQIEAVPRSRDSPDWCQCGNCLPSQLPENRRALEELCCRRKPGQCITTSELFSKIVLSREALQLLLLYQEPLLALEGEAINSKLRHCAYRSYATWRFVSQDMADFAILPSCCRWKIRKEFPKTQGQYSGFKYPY
Description: Cells were grown in a humidified incubator at 37°C in an atmosphere supplemented with 5% CO2. […] HEK293mP2X7 were cultured in DMEM under similar conditions as described above, but containing 100 μg/ml zeocin (Invitrogen). […] Expression of the transgene was induced by supplementing the medium with 1 μg/ml tetracycline (Sigma-Aldrich, Taufkirchen, Germany) 24 h prior to the experiments. All fluorometric Ca^2+ assays in cell suspensions were performed in 384-microwell plates (Corning, No. 3655, Lowell, MA, USA) with a fluorescence-imaging microplate reader (POLARstar Omega, BMG Labtech, Offenburg, Germany) (for details, see [61, 68]). […] Microwell plates were repetitively scanned every 16 s in the fast scanning mode of the device. […] Data were normalized to the baseline values before ATP application (F/F0). […] ATP-solution was freshly prepared in Mg^2+-free HBS solution and adjusted to pH 7.4. Aliquots of stock solutions were stored at -20°C and freshly diluted with the appropriate HBS solution. […] Results are expressed as mean ± SEM. […] In the PTZ-T, the number of animals in the group with clonic seizures and the latency time were analysed using Fisher's exact probability test and the Mann-Whitney rank sum test, respectively. For multiple comparisons of the latency time a one-way ANOVA with the Holm-Sidak post hoc test was used. The influence of AFC on the plasma and brain concentrations of the antiepileptic drugs was statistical compared using the same procedure. In the PTZ-kindling model, the mean seizure stage within a group was calculated in relation to the number of PTZ-injections. Statistical comparison between vehicle- and compound-treated groups in this model was performed with two-way repeated measures ANOVA, followed by the Holm-Sidak post hoc test. […] In fully kindled rats, the calculated mean seizure stage within a group after vehicle- and compound-treatment were compared using a paired t-test. P < 0.05 was the accepted minimum level of significance.

[2] = system: PTZ-induced kindling; experiment: PTZ-induced kindling development; format: in vivo, rats; conditions: for mean seizure stages after 8-day treatment-free interval (21st-25th PTZ-injection, vehicle only): rats formerly treated with TIIAS 30, BBG 50, AFC 30 mg/kg i.p. or JNJ 15 mg/kg s.c.; for mean number of PTZ-injections needed to produce the first generalized seizure (≥ stage 3) vs vehicle / effect on PTZ-kindling development (mean seizure stages): rats; for mean number of PTZ-injections needed to produce the first generalized seizure (≥ stage 3) vs vehicle: TIIAS 30, BBG 50, AFC 30 mg/kg i.p., JNJ 15 mg/kg s.c.; for effect on PTZ-kindling development (mean seizure stages): TIIAS 30 and BBG 50 mg/kg i.p. 45 min, AFC 30 mg/kg i.p. 45 min, JNJ 15 mg/kg s.c. 30 min before each PTZ 35 mg/kg i.p., every 48 h, 20 injections
Description: For PTZ-kindling, the initial sub-convulsive dose of PTZ (35 mg/kg) was injected i.p. once every 48 h (on Monday, Wednesday, and Friday, three times a week). After vehicle or vehicle/compound pre-treatment, PTZ was injected and the rats were individually observed for 30 min. Behavioural seizure responses were scored according to a defined graduation from stage 0 to stage 5. […] Rats received 20 successive PTZ-kindling stimulations. After an 8-day treatment-free interval, the animals were re-tested with PTZ (21st-25th injection) and vehicle pre-treatment without the compounds. […] Additional care was taken the hours following generalized tonic-clonic seizures and status epilepticus by providing the animals with soft food pellets and tap water if required. All efforts were made to minimize suffering. […] Chemicals, Toronto, Canada) was slowly added. The pH was adjusted with 1N NaOH (similar amount of NaOH as HCl), all with continuous stirring. […] The drug solutions or suspensions were prepared immediately before use; all doses refer to the salts. Animals in the control group received equivalent volumes of the vehicle (in mice always 10 ml/kg, in rats 1 ml/kg [JNJ], 3 ml/kg [AFC] or 4 ml/kg [BBG, TIIAS], depending on the solubility of the different compounds). Doses and peak time effects were selected on the basis of effective doses from corresponding in vivo studies in the literature: BBG (e.g.), tanshinone IIA (e.g.) and from manufacturer's experimental data: AFC, JNJ (see, [80]). Data were analysed using SigmaPlot (vers. 12.0, Systat Software, Erkrath, Germany) and SPSS (IBM SPSS Statistics 20, […], Germany), respectively. Results are expressed as mean ± SEM. […] In the MES-T, the current intensity inducing tonic hindlimb extensions in 50% of the mice (CC50 values with confidence limits for 95% probability) and the statistical significance was calculated using Probit analysis (SPSS). […] In the PTZ-T, the number of animals in the group with clonic seizures and the latency time were analysed using Fisher's exact probability test and the Mann-Whitney rank sum test, respectively. For multiple comparisons of the latency time a one-way ANOVA with the Holm-Sidak post hoc test was used. The influence of AFC on the plasma and brain concentrations of the antiepileptic drugs was statistical compared using the same procedure. In the PTZ-kindling model, the mean seizure stage within a group was calculated in relation to the number of PTZ-injections. Statistical comparison between vehicle- and compound-treated groups in this model was performed with two-way repeated measures ANOVA, followed by the Holm-Sidak post hoc test. The mean number of PTZ-injections needed to produce the first generalized seizure (≥ stage 3 convulsions) in the vehicle- versus compound-treated groups was statistically compared using a Mann-Whitney rank sum test. In fully kindled rats, the calculated mean seizure stage within a group after vehicle- and compound-treatment were compared using a paired t-test. P < 0.05 was the accepted minimum level of significance.

`CCOc1ccc(Nc2ccc(/C(=C3C=C/C(=[N+](/CC)Cc4cccc(S(=O)(=O)[O-])c4)C=C/3C)c3ccc(N(CC)Cc4cccc(S(=O)(=O)O)c4)cc3C)cc2)cc1` [Brilliant Blue G] was tested, and the IC50 [1] was 50 ± 10 nM, the inhibition at 0.02 µM ([1]; read-out: inhibition of P2X7R / ATP-induced Ca2+ response corresponding to the achieved rat brain concentration) was ~30% and the “mean seizure stages after 8-day treatment-free interval (21st-25th PTZ-injection, vehicle only)” value [2] was “no differences of the mean seizure stages”. For the same molecule, the “mean number of PTZ-injections needed to produce the first generalized seizure (≥ stage 3) vs vehicle” value (shortened to “mean number … vs vehicle”) [2] was “required significantly more PTZ-injections” and the “effect on PTZ-kindling development (mean seizure stages)” value (from here on “effect on PTZ-kindling development”) [2] was “moderate, yet significant retarding effect on kindling development”.

With `O=C(NCC1(N2CCN(c3ccccc3)CC2)CCOCC1)c1cccnc1Sc1ccccc1` [JNJ-47965567, N-[[4-(4-phenyl-piperazin-1-yl)tetrahydro-2H-pyran-4-yl]-methyl]-2-(phenyl-thio) nicotinamide] the IC50 [1] was 3 ± 0.1 nM, the “mean seizure stages after 8-day treatment-free interval (21st-25th PTZ-injection, vehicle only)” value [2] was “persisted after compound treatment ceased” and the “mean number … vs vehicle” value [2] was “required significantly more PTZ-injections”. For the same molecule, the “effect on PTZ-kindling development” value [2] was “significantly reduced the PTZ-kindling development”.

For `Cc1c(S(=O)(=O)[O-])oc2c1C(=O)C(=O)c1c-2ccc2c1CCCC2(C)C.[Na+]` [Tanshinone TIIAS, tanshinone IIS sulfonic sodium], the IC50 [1] was ≥ 30000 nM, the “mean seizure stages after 8-day treatment-free interval (21st-25th PTZ-injection, vehicle only)” value [2] was “no differences of the mean seizure stages” and the “mean number … vs vehicle” value [2] was “required significantly more PTZ-injections”. The “effect on PTZ-kindling development” value [2] was “moderate, yet significant retarding effect on kindling development”.
